From patent US12060347B2 (BRISTOL-MYERS SQUIBB COMPANY, priority 2016, dated 2024) come the findings set out here.

The experiment has as its target T1, human PAR4 (Homo sapiens, UniProt Q96RI0).
T1 construct: expressed in transfected cells; host or cells: HEK293 PAR4 Clone 1.2A (BMS Arctic ID 383940)
T1 sequence (Q96RI0 18-385): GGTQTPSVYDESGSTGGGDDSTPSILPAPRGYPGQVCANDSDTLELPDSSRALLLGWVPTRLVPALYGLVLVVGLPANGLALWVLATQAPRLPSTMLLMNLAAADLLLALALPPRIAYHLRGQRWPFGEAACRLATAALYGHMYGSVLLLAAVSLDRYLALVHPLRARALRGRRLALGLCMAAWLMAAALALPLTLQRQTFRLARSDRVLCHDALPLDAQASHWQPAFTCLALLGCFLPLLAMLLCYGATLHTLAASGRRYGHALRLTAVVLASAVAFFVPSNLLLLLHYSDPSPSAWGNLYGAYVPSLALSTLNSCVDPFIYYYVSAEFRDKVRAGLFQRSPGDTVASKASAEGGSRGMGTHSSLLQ
Description: PAR4 FLIPR assay: antagonism of agonist-peptide-induced calcium mobilization in PAR4-expressing HEK293 cells. In kind it is cell-based. The following applies: H-Ala-Phe(4-F)-[…]NH2-induced intracellular calcium mobilization, 11-point curves.
As usually defined, the IC50 is the concentration needed to halve the response being measured. Consider `CCOc1cnc2c(-c3nc4cc(F)c(OC[C@@H](C)OC(=O)Nc5cnc(OCCO)nc5)nc4s3)cc(C)cc2n1` [Example 814, (R)-1-((2-(2-ethoxy-7-methylquinoxalin-5-yl)-6-fluorothiazolo[5,4-b]pyridin-5-yl)oxy)propan-2-yl (2-(2-hydroxyethoxy)pyrimidin-5-yl)carbamate], for which the IC50 stood at 7.2 nM.
The result for `CCOc1cnc2c(-c3nc4cc(F)c(OC[C@@H](C)OC(=O)Nc5cnc(OC[C@@H](C)O)nc5)nc4s3)cc(C)cc2n1` [Example 815, (R)-1-((2-(2-ethoxy-7-methylquinoxalin-5-yl)-6-fluorothiazolo[5,4-b]pyridin-5-yl)oxy) propan-2-yl (2-((R)-2-hydroxypropoxy)pyrimidin-5-yl)carbamate] reads 6.4 nM; that for `CCOc1cnc2c(-c3nc4cc(F)c(O[C@@H](C)[C@@H](C)OC(=O)Nc5cnc(CO)nc5)nc4s3)cc(C)cc2n1` [Example 816], 10 nM; that for `CCOc1cnc2c(-c3nc4c(C(O)C(C)(C)C)cc(OC)cc4s3)cc(C)cc2n1` (stereo not drawn) [Example 817, 1-(2-(2-ethoxy-7-methylquinoxalin-5-yl)-6-methoxybenzo[d]thiazol-4-yl)-2,2-dimethylpropan-1-ol], 3.6 nM.
The result for `COc1cnc2c(-c3nc4cc(F)c(OC[C@@H](C)OC(=O)Nc5ccc(C#N)nc5)cc4s3)cc(C#N)cc2n1` [Example 818, (R)-1-((2-(7-cyano-2-methoxyquinoxalin-5-yl)-5-fluorobenzo[d]thiazol-6-yl)oxy)propan-2-yl (6-cyanopyridin-3-yl)carbamate] reads 1.8 nM.
Consider `COc1cnc2c(-c3nc4cc(F)c(OC[C@@H](C)OC(=O)Nc5cnc(C)nc5)cc4s3)cc(C#N)cc2n1` [Example 819, (R)-1-((2-(7-cyano-2-methoxyquinoxalin-5-yl)-5-fluorobenzo[d]thiazol-6-yl)oxy)propan-2-yl (2-methylpyrimidin-5-yl)carbamate], for which the IC50 is 1.2 nM.
Turning to `COc1cnc2c(-c3nc4cc(F)c(O[C@@H](C)[C@@H](C)OC(=O)Nc5cnc(OC)nc5)cc4s3)cc(Cl)cc2n1` [Example 820, (2R,3S)-3-((2-(7-chloro-2-methoxyquinoxalin-5-yl)-5-fluorobenzo[d]thiazol-6-yl)oxy)butan-2-yl (2-methoxypyrimidin-5-yl)carbamate], the half-inhibitory concentration (IC50) came out at 1.7 nM.
In the case of `COc1ccc(NC(=O)O[C@H](C)[C@H](C)Oc2cc3sc(-c4cc(Cl)cc5nc(OC)cnc45)nc3cc2F)cn1` [Example 821, (2R,3S)-3-((2-(7-chloro-2-methoxyquinoxalin-5-yl)-5-fluorobenzo[d]thiazol-6-yl)oxy)butan-2-yl (6-methoxypyridin-3-yl)carbamate] it was 4.6 nM.
In the case of `COc1cnc2c(-c3nc4cc(F)c(O[C@@H](C)[C@@H](C)OC(=O)Nc5ccc(C)nc5)cc4s3)cc(Cl)cc2n1` [Example 822, (2R,3S)-3-((2-(7-chloro-2-methoxyquinoxalin-5-yl)-5-fluorobenzo[d]thiazol-6-yl)oxy)butan-2-yl (6-methylpyridin-3-yl)carbamate], the 50% inhibitory concentration (IC50) was 1.6 nM.
In the case of `COc1cnc2c(-c3nc4cc(F)c(O[C@@H](C)[C@@H](C)OC(=O)Nc5ccc(C)nc5)cc4s3)cc(C#N)cc2n1` [Example 823, (2R,3S)-3-((2-(7-cyano-2-methoxyquinoxalin-5-yl)-5-fluorobenzo[d]thiazol-6-yl)oxy)butan-2-yl (6-methylpyridin-3-yl)carbamate] it was 5.1 nM; in that of `COc1cnc2c(-c3nc4cc(F)c(O[C@@H](C)[C@@H](C)OC(=O)Nc5cnc(C)nc5)cc4s3)cc(Cl)cc2n1` [Example 824, (2R,3S)-3-((2-(7-chloro-2-methoxyquinoxalin-5-yl)-5-fluorobenzo[d]thiazol-6-yl)oxy)butan-2-yl (2-methylpyrimidin-5-yl)carbamate], 1.5 nM; in that of `COc1cnc2c(-c3nc4cc(F)c(O[C@@H](C)[C@@H](C)OC(=O)Nc5cnc(C)nc5)cc4s3)cc(C#N)cc2n1` [Example 825, (2R,3S)-3-((2-(7-cyano-2-methoxyquinoxalin-5-yl)-5-fluorobenzo[d]thiazol-6-yl)oxy)butan-2-yl (2-methylpyrimidin-5-yl)carbamate], 8 nM.
In the case of `COc1cnc2c(-c3nc4cc(F)c(O[C@@H](C)[C@@H](C)OC(=O)Nc5cncc(C#N)c5)cc4s3)cc(Cl)cc2n1` [Example 826, (2R,3S)-3-((2-(7-chloro-2-methoxyquinoxalin-5-yl)-5-fluorobenzo[d]thiazol-6-yl)oxy)butan-2-yl (5-cyanopyridin-3-yl)carbamate] it was 1.9 nM.
In the case of `Cc1cc(-c2nc3cc(F)c(O[C@@H](C)[C@@H](C)OC(=O)Nc4cnc(C)nc4)cc3s2)c2ncc(OCC(F)F)nc2c1` [Example 827, (2R,3S)-3-((2-(2-(2,2-difluoroethoxy)-7-methylquinoxalin-5-yl)-5-fluorobenzo[d]thiazol-6-yl)oxy)butan-2-yl (2-methylpyrimidin-5-yl)carbamate] it was 6.2 nM.
`COc1cnc2c(-c3nc4cc(F)c(O[C@@H](C)[C@@H](C)OC(=O)Nc5ccc(C#N)nc5)cc4s3)cc(C#N)cc2n1` [Example 828, (2R,3S)-3-((2-(7-cyano-2-methoxyquinoxalin-5-yl)-5-fluorobenzo[d]thiazol-6-yl)oxy)butan-2-yl (6-cyanopyridin-3-yl)carbamate]: the IC50 is 0.7 nM.
In the case of `COc1cnc2c(-c3nc4cc(F)c(O[C@@H](C)[C@@H](C)OC(=O)Nc5ccc(C#N)nc5)cc4s3)cc(Cl)cc2n1` [Example 829, (2R,3S)-3-((2-(7-chloro-2-methoxyquinoxalin-5-yl)-5-fluorobenzo[d]thiazol-6-yl)oxy)butan-2-yl (6-cyanopyridin-3-yl)carbamate] it was 0.6 nM; in that of `COC(=O)c1ccc(NC(=O)O[C@H](C)[C@H](C)Oc2cc3sc(-c4cc(Cl)cc5nc(OC)cnc45)nc3cc2F)cn1` [Example 830, methyl 5-(((((2R,3S)-3-((2-(7-chloro-2-methoxyquinoxalin-5-yl)-5-fluorobenzo[d]thiazol-6-yl)oxy)butan-2-yl)oxy)carbonyl)amino)picolinate], 1.6 nM.
In the case of `COc1cnc2c(-c3nc4cc(F)c(O[C@@H](C)[C@@H](C)OC(=O)Nc5ccc(CO)nc5)cc4s3)cc(Cl)cc2n1` [Example 831, (2R,3S)-3-((2-(7-chloro-2-methoxyquinoxalin-5-yl)-5-fluorobenzo[d]thiazol-6-yl)oxy)butan-2-yl (6-(hydroxymethyl)pyridin-3-yl)carbamate] it was 2.2 nM; in that of `CNC(=O)c1ccc(NC(=O)O[C@H](C)[C@H](C)Oc2cc3sc(-c4cc(Cl)cc5nc(OC)cnc45)nc3cc2F)cn1` [Example 832, (2R,3S)-3-((2-(7-chloro-2-methoxyquinoxalin-5-yl)-5-fluorobenzo[d]thiazol-6-yl)oxy)butan-2-yl (6-(methylcarbamoyl)pyridin-3-yl)carbamate], 2.5 nM; in that of `COc1cnc2c(-c3nc4cc(F)c(O[C@@H](C)[C@@H](C)OC(=O)Nc5ccc(C(N)=O)nc5)cc4s3)cc(Cl)cc2n1` [Example 833, (2R,3S)-3-((2-(7-chloro-2-methoxyquinoxalin-5-yl)-5-fluorobenzo[d]thiazol-6-yl)oxy) butan-2-yl (6-carbamoylpyridin-3-yl)carbamate], 1.6 nM.
In the case of `COc1cnc2c(-c3nc4cc(F)c(O[C@@H](C)[C@@H](C)OC(=O)Nc5ccc(C(=O)N(C)C)nc5)cc4s3)cc(Cl)cc2n1` [Example 834, (2R,3S)-3-((2-(7-chloro-2-methoxyquinoxalin-5-yl)-5-fluorobenzo[d]thiazol-6-yl)oxy)butan-2-yl (6-(dimethylcarbamoyl)pyridin-3-yl)carbamate] it was 3 nM; in that of `COc1cnc2c(-c3nc4cc(F)c(O[C@@H](C)[C@@H](C)OC(=O)Nc5ccc(CC(C)(C)O)nc5)cc4s3)cc(Cl)cc2n1` [Example 835, (2R,3S)-3-((2-(7-chloro-2-methoxyquinoxalin-5-yl)-5-fluorobenzo[d]thiazol-6-yl)oxy)butan-2-yl (6-(2-hydroxy-2-methylpropyl)pyridin-3-yl)carbamate], 0.5 nM; in that of `COc1cnc2c(-c3nc4cc(F)c(O[C@@H](C)[C@@H](C)OC(=O)Nc5ccc(CCO)nc5)cc4s3)cc(Cl)cc2n1` [Example 836, (2R,3S)-3-((2-(7-chloro-2-methoxyquinoxalin-5-yl)-5-fluorobenzo[d]thiazol-6-yl)oxy)butan-2-yl (6-(2-hydroxyethyl)pyridin-3-yl)carbamate], 1.2 nM.
As for `COc1cc(C)c2nc(-c3cc(Cl)cc4nc(OC)cnc34)sc2c1` [Example 837, 2-(7-chloro-2-methoxyquinoxalin-5-yl)-6-methoxy-4-methylbenzo[d]thiazole], the half-inhibitory concentration (IC50) was found to be 17 nM.
